The numbers were not newly measured in patent US20240335390A9, “PHARMACEUTICAL COMPOSITIONS OF AMORPHOUS SOLID DISPERSIONS AND METHODS OF PREPARATION THEREOF” (Shenzhen Pharmacin Co., Ltd., priority 2020, published 2024), which cites them from elsewhere.

For the data set the following is noted: cited from earlier work.
[1] abbreviates: second value listed in the cell.

Where two headings read alike, the source gives them in different places.

For `Cc1nc(NC(=O)N2CCC[C@H]2C(N)=O)sc1-c1ccnc(C(C)(C)C(F)(F)F)c1` [Alpelisib], the “Measured or Calculated pKas” value is listed as 3.3 (first value listed in the cell) and 9.4 under setting [1].

Take `CC1(C)S[C@@H]2[C@H](NC(=O)[C@H](N)c3ccc(O)cc3)C(=O)N2[C@H]1C(=O)O` [Amoxicillin]: the “Measured or Calculated pKas” value by setting is: (first value listed in the cell) 3.39; under setting [1], 6.71.

In the case of `Cn1cc(-c2cc3c(N4CCN(c5ncc([C@@](C)(N)c6ccc(F)cc6)cn5)CC4)ncnn3c2)cn1` [Avapritinib], the “Measured or Calculated pKas” value runs as follows: (first value listed in the cell) 6.97; (fourth value listed in the cell) 1.51; under setting [1], 4.57; (third value listed in the cell) 3.50.

With `CCC(C(=O)O)c1ccc(CC(C)C)cc1` (stereo not shown) [Butibufen], under “first value listed in the cell”, the “Measured or Calculated pKas” value is on record as 4.64.

As for `CC(C(=O)O)c1ccc2c(c1)[nH]c1ccc(Cl)cc12` (stereo not shown) [Carprofen], under “first value listed in the cell”, the “Measured or Calculated pKas” value is 4.63.

Turning to `CN(C)[C@@H]1C(O)=C(C(N)=O)C(=O)[C@@]2(O)C(O)=C3C(=O)c4c(O)ccc(Cl)c4[C@@](C)(O)[C@H]3C[C@@H]12` [Chlortetracycline], the “Measured or Calculated pKas” value (first value listed in the cell) is on record as 3.33 ± 0.30 and the “Measured or Calculated pKas” value under setting [1] was 7.55 ± 0.02.

Take `CC[C@H]1OC(=O)[C@H](C)[C@@H](O[C@H]2C[C@@](C)(OC)[C@@H](O)[C@H](C)O2)[C@H](C)[C@@H](O[C@@H]2O[C@H](C)C[C@H](N(C)C)[C@H]2O)[C@](C)(OC)C[C@@H](C)C(=O)[C@H](C)[C@@H](O)[C@]1(C)O` [Clarithromycin]: the “Measured or Calculated pKas” value (first value listed in the cell) is listed as 7.25.

In the case of `CN1C[C@@H]2C[C@H]1CN2c1cc2c(cc1F)c(=O)c(C(=O)O)cn2C1CC1` [Danofloxacin], the “Measured or Calculated pKas” value by setting is: (first value listed in the cell) 6.07 ± 0.06; under setting [1], 8.56 ± 0.07.

With `CC(O)c1cc(C(=O)N[C@@H](C)Cn2ccc(-c3ccc(C#N)c(Cl)c3)n2)[nH]n1` (stereo partly shown) [Darolutamide], the “Measured or Calculated pKas” value (first value listed in the cell) is given as 11.75.

Take `CN(C)[C@@H]1C(O)=C(C(N)=O)C(=O)[C@@]2(O)C(O)=C3C(=O)c4c(O)ccc(Cl)c4[C@@H](O)[C@H]3C[C@@H]12` [Demeclocycline]: the “Measured or Calculated pKas” value by setting is: (first value listed in the cell) 3.37 ± 0.30; under setting [1], 7.36 ± 0.03.

Consider `O=C(O)Cc1ccccc1Nc1c(Cl)cccc1Cl` [Diclofenac], for which, for the setting “first value listed in the cell”, the “Measured or Calculated pKas” value was 4.16.

Consider `CN1CCN(c2cc3c(cc2F)c(=O)c(C(=O)O)cn3-c2ccc(F)cc2)CC1` [Difloxacin], for which the “Measured or Calculated pKas” value runs as follows: (first value listed in the cell) 5.66 ± 0.04; under setting [1], 7.24 ± 0.06.

Consider `C[C@H]1c2cccc(O)c2C(=O)C2=C(O)[C@]3(O)C(=O)C(C(N)=O)=C(O)[C@@H](N(C)C)[C@@H]3[C@@H](O)[C@@H]21` [Doxycycline], for which the “Measured or Calculated pKas” value is 3.02 ± 0.30 (first value listed in the cell) and 7.97 ± 0.15 under setting [1].

`CCn1cc(C(=O)O)c(=O)c2cc(F)c(N3CCNCC3)nc21` [Enoxacin]: the “Measured or Calculated pKas” value is, setting by setting: (first value listed in the cell) 5.05 ± 0.08; under setting [1], 6.25 ± 0.05.

In the case of `CCN1CCN(c2cc3c(cc2F)c(=O)c(C(=O)O)cn3C2CC2)CC1` [Enrofloxacin], the “Measured or Calculated pKas” value is recorded as 5.88 ± 0.03 (first value listed in the cell) and 7.74 ± 0.03 under setting [1].

For `CNC(=O)c1ccc(N2C(=S)N(c3ccc(C#N)c(C(F)(F)F)c3)C(=O)C2(C)C)cc1F` [Enzalutamide], the “Measured or Calculated pKas” value (first value listed in the cell) is reported as 3-11.

In the case of `C#Cc1cccc(Nc2ncnc3cc(OCCOC)c(OCCOC)cc23)c1.Cl` [Erlotinib], the “Measured or Calculated pKas” value (first value listed in the cell) is reported as 5.4.

As for `CN1CCN(c2c(F)cc3c(=O)c(C(=O)O)cn(CCF)c3c2F)CC1` [Fleroxacin], the “Measured or Calculated pKas” value is recorded as 5.46 (first value listed in the cell) and 8.00 under setting [1].

Consider `CC(C(=O)O)c1ccc(-c2ccccc2)c(F)c1` (stereo not shown) [Flurbiprofen], for which, for the setting “first value listed in the cell”, the “Measured or Calculated pKas” value was 4.35.

On to `COc1cc2ncnc(Nc3ccc(F)c(Cl)c3)c2cc1OCCCN1CCOCC1` [Gefitinib], for which, under “first value listed in the cell”, the “Measured or Calculated pKas” value is reported as 7.2.

On to `CC(C)Cc1ccc(C(C)C(=O)O)cc1` (stereo not shown) [Ibuprofen], for which the “Measured or Calculated pKas” value (first value listed in the cell) is reported as 4.51.
